Measurements taken from US10041937B2, “Macrophage identification agent, and identification method, sorting method, evaluation method, screening method and kit using the macrophage identifier agent” (CANON KABUSHIKI KAISHA, priority 2013, dated 2018).

Legend:
[1] = system: M1 macrophages and M2 macrophages differentiated from mouse bone marrow cells; experiment: Subtype identification by staining and flow cytometry of M1 and M2 macrophages differentiated from mouse bone marrow cells; assay type: cell-based, Balb/c mouse; conditions: for difference in the staining intensity between the M1 macrophages and the M2 macrophages / identification: mouse bone marrow derived; for Selectivity: subtype strongly stained; for subtype more strongly stained: two compounds used in combination, each 1 μM
Method in brief: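 Balb/c mouse bone marrow cells were differentiated to macrophages with 50 ng/mL M-CSF over two 3–4-day periods, then polarized for 3 days to M1 (interferon-γ plus polyliposaccharide) or M2 (IL-4). Live cells (aqua dye-negative) were analysed by flow cytometry; resolution R = |FM1−FM2|/(WM1+WM2) from histogram peak positions and widths indexed subtype discrimination.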

[2] = system: M1 macrophages and M2 macrophages differentiated from THP-1 cells; experiment: Identification of macrophage subtypes differentiated from human cell line THP-1; assay type: cell-based; conditions: for difference in the staining intensity between the M1 macrophages and the M2 macrophages / identification: THP-1 derived; for Resolution ratio R / Evaluation of macrophage subtype identification: M1 vs M2 macrophages differentiated from THP-1 cells; for Resolution ratio R: channel listed per compound (Table 6); for Evaluation of macrophage subtype identification: class based on resolution R (Table 6); for Peak position of M1 macrophage: THP-1-derived M1 macrophages; for Peak position of M1 macrophage / Peak position of M2 macrophage: fluorescence intensity peak by flow cytometry in the channel listed per compound (Table 6); for Peak position of M2 macrophage: THP-1-derived M2 macrophages; for Selectivity: subtype strongly stained, THP-1-derived macrophages (Table 6)
Protocol: The fluorescent signals derived from the compounds (3), (4), (6), (7), (9), (11) to (13), (15), (17), (19) to (26), (28), (30) to (33), (35), (36), (38), (42) to (45), (48) to (62), (65), (67), (74) to (76), (82), (83) and (85) and the comparative compounds (1) and (2) were measured in channels suitable to the respective compounds. Histograms were prepared by plotting fluorescence intensities obtained in the respective channels on the abscissa and plotting the numbers of cells at each fluorescence intensity on the ordinate. A difference between a fluorescence intensity (FM1) at a peak top of the histogram of the M1 macrophage and a fluorescence intensity (FM2) at a peak top of the histogram of the M2 macrophage is divided by a sum of a peak width (WM1) of the histogram of the M1 macrophage and a peak width (WM2) of the histogram of the M2 macrophage, so as to obtain a resolution R, which was used as an index of the identification ability for a subtype (see the following expression (1)). Resolution R=|FM1−FM2|/(WM1+WM2) Expression (1)
Based on the thus obtained values of the resolution R, the identification abilities for the subtypes of the compounds (3), (4), (6), (7), (9), (11) to (13), (15), (17), (19) to (26), (28), (30) to (33), (35), (36), (38), (42) to (45), (48) to (62), (65), (67), (74) to (76), (82), (83) and (85) and the comparative compounds (1) and (2) were evaluated as any of A to C according to the following criteria, and if the resolution R was 0.15 or more, the compound was determined to be good in the subtype identification.
The subtypes were identified by using the compound (1) in the same manner as in Example 1 except that the macrophage subtypes differentiated from the mouse bone marrow cells were changed to macrophage subtypes differentiated from a cell line established from human acute monocytic leukemia.
The culture of subtypes was performed with reference to NPL 10. Specifically, THP-1 cells purchased from JCRB Cell Bank of National Institute of Biomedical Innovation, that is, a cell line established from human acute monocytic leukemia, were subcultured several times, and the resultant cells were dispersed to a concentration of 5.0×10^5/mL in an RPMI1640 containing 10% FBS and 1% P/S, and 5.0×10^6 cells were seeded in a 100 mm dish. The monocytes were differentiated into macrophages by incubating the resultant in the presence of 5% CO2 at 37° C. for 2 days with 500 ng of PMA added thereto. After exchanging the medium, by adding 200 ng of interferon-γ and 1 μg of polyliposaccharide (both manufactured by Pepro Tech) to the medium, the cells were differentiated to the subtype M1. Besides, by adding 200 ng of IL-4 and IL-13, the cells were differentiated to the subtype M2. After incubation performed in the presence of 5% CO2 at 37° C. for 24 hours, the resultant was rinsed with PBS, and PBS containing 0.25% trypsin and 1 mM EDTA (ethylenediaminetetraacetic acid) was used for collecting, from the dish, the macrophages having been differentiated to the subtypes M1 and M2.
Specifically, fluorescent signals derived from the compounds (1) (3) (4) (12) and (15) were measured by using the channels which are appropriate for each of the compounds and the identification abilities for the subtypes of the compounds were evaluated based on the values of the resolution R.

[3] = system: mixture of the M1 macrophages and the M2 macrophages; experiment: Sorting of subtypes from a mixture of M1 and M2 macrophages with an FACS apparatus; assay type: cell-based, mouse; conditions: compound 1 μM
[4] = M1 vs M2 macrophages from mouse bone marrow cells, general formula (6) dyes (Table 7)
[5] = M1 vs M2 macrophages from mouse bone marrow cells, general formula (10) dyes (Table 8)
[6] = M1 vs M2 macrophages from mouse bone marrow cells, general formula (11) dyes (Table 9)
[7] = R=|FM1−FM2|/(WM1+WM2), compound 1 μM
[8] = class based on resolution R, general formula (6) dyes (Table 7)
[9] = class based on resolution R, general formula (10) dyes (Table 8)
[10] = class based on resolution R, general formula (11) dyes (Table 9)
[11] = fluorescence intensity at peak top of histogram, compound 1 μM, 37° C., 30 minutes
[12] = mouse bone marrow-derived M1 macrophages, channel listed per compound, general formula (6) dyes (Table 7)
[13] = mouse bone marrow-derived M1 macrophages, channel listed per compound, general formula (10) dyes (Table 8)
[14] = mouse bone marrow-derived M1 macrophages, channel listed per compound, general formula (11) dyes (Table 9)
[15] = mouse bone marrow-derived M2 macrophages, channel listed per compound, general formula (6) dyes (Table 7)
[16] = mouse bone marrow-derived M2 macrophages, channel listed per compound, general formula (10) dyes (Table 8)
[17] = mouse bone marrow-derived M2 macrophages, channel listed per compound, general formula (11) dyes (Table 9)

Structure (SMILES)	Resolution ratio R [1, 6]	Resolution ratio R [1, 7]	Evaluation of macrophage subtype identification [1, 10]	Peak position of M1 macrophage [1, 11]	Peak position of M2 macrophage [1, 11]	Peak position of M1 macrophage [1, 14]	Peak position of M2 macrophage [1, 17]	Evaluation of macrophage subtype identification ([1]; rated from resolution R)	Resolution ratio R [2]	Evaluation of macrophage subtype identification [2]	Peak position of M1 macrophage [2]	Peak position of M2 macrophage [2]	Selectivity [2]	also measured
CCC1=C(CC)c2cc3[nH]c(cc4nc(cc5[nH]c(cc1n2)c(CC)c5CC)C(CC)=C4CC)c(CC)c3CC [(1), reference compound]	0.006	0.006	C (the compound cannot identify the subtypes (namely, the resolution R is less than 0.15))	1.70	1.86	1.70	1.86	C (the compound cannot identify the subtypes (namely, the resolution R is less than 0.15))						Resolution ratio R [1, 4]: 0.006; Resolution ratio R [1, 5]: 0.006; Evaluation of macrophage subtype identification [1, 8]: C (the compound cannot identify the subtypes (namely, the resolution R is less than 0.15)); Evaluation of macrophage subtype identification [1, 9]: C (the compound cannot identify the subtypes (namely, the resolution R is less than 0.15)); difference in the staining intensity between the M1 macrophages and the M2 macrophages / identification [1]: no difference in the staining intensity; Peak position of M1 macrophage [1, 12]: 1.70; Peak position of M1 macrophage [1, 13]: 1.70; Peak position of M2 macrophage [1, 15]: 1.86; Peak position of M2 macrophage [1, 16]: 1.86; Selectivity ([1]; general formula (6) dyes (Table 7)): No; Selectivity ([1]; general formula (10) dyes (Table 8)): No; difference in the staining intensity between the M1 macrophages and the M2 macrophages / identification [2]: no difference in the staining intensity
COc1ccc(N2c3ccc(/C=C4\C(=O)NC(=O)C(C#N)=C4C)cc3C3CCCC32)cc1 (stereo not shown) [(2), reference compound]		0.007		0.86	1.05			C (the compound cannot identify the subtypes (namely, the resolution R is less than 0.15))						difference in the staining intensity between the M1 macrophages and the M2 macrophages / identification [1]: no difference in the staining intensity; difference in the staining intensity between the M1 macrophages and the M2 macrophages / identification [2]: no difference in the staining intensity
O=C(O)CN1C(=O)/C(=C\c2cc(Br)c3c(c2)C2CCCC2N3c2ccc(Br)cc2)SC1=S (stereo not shown) [(12)]		0.594		50.7	97.7			A (The compound is very good in the subtype identification (namely, the resolution R is 0.5 or more))	0.276	B (the compound is good in the subtype identification (namely, the resolution R is 0.15 or more and less than 0.5))	37.4	46.5	M2	
CCN1c2ccc(/C=C3/SC(=S)N(CCC(=O)O)C3=O)cc2C2CCCC21 (stereo not shown) [(15)]		0.700		7.52	10.5			A (The compound is very good in the subtype identification (namely, the resolution R is 0.5 or more))	0.216	B (the compound is good in the subtype identification (namely, the resolution R is 0.15 or more and less than 0.5))	5.62	7.4	M2	
O=C(O)CCN1C(=O)/C(=C\c2ccc3c(c2)C2CCCC2N3Cc2ccccc2)SC1=S (stereo not shown) [compound (3)]		0.622		11.2	25.0			A (The compound is very good in the subtype identification (namely, the resolution R is 0.5 or more))	0.257	B (the compound is good in the subtype identification (namely, the resolution R is 0.15 or more and less than 0.5))	9.63	12.3	M2	
COC(=O)CCC(C(=O)OC)N1C(=O)/C(=C\c2ccc3c(c2)C2CCCC2N3c2ccc(OC)cc2)SC1=S (stereo not shown) [compound (4)]		1.125		158	45.4			A (The compound is very good in the subtype identification (namely, the resolution R is 0.5 or more))	0.372	B (the compound is good in the subtype identification (namely, the resolution R is 0.15 or more and less than 0.5))	26.5	17.9	M1	
CC1(C)C(/C=C/C=C/C=C/C=C2\N(CCCCS(=O)(=O)[O-])c3ccc4ccccc4c3C2(C)C)=[N+](CCCCS(=O)(=O)[O-])c2ccc3ccccc3c21.[Na+] [compound (86)]														Resolution ratio R [1, 4]: 0.602; Evaluation of macrophage subtype identification [1, 8]: A (The compound is very good in the subtype identification (namely, the resolution R is 0.5 or more)); Peak position of M1 macrophage [1, 12]: 2.27; Peak position of M2 macrophage [1, 15]: 6.37; sorting of identified M1 and M2 macrophages ([3]; FACS apparatus): could be each sorted with an FACS apparatus; subtype more strongly stained ([3]; mixed M1 and M2 macrophages): stain the M2 macrophages more strongly than the M1 macrophages
CCN(CC)c1ccc2cc(-c3nc4ncccc4o3)c(=O)oc2c1 [compound (116)]														Resolution ratio R [1, 5]: 0.772; Evaluation of macrophage subtype identification [1, 9]: A (The compound is very good in the subtype identification (namely, the resolution R is 0.5 or more)); Peak position of M1 macrophage [1, 13]: 4.91; Peak position of M2 macrophage [1, 16]: 12.1; subtype more strongly stained [1]: more strongly stain the M2 macrophages than the M1 macrophages
CCC1=C(C)C2=C(C)c3c(C)c(CC)c(C)n3[B-](C#C[Si](C)(C)C)(C#C[Si](C)(C)C)[N+]2=C1C [compound (154)]	0.160		B (the compound is good in the subtype identification (namely, the resolution R is 0.15 or more and less than 0.5))			1.25	1.63							
COC(=O)COc1ccc(/C=C/C2=[N+]3C(=Cc4ccc(-c5cccs5)n4[B-]3(F)F)C=C2)cc1 [compound (161)]	0.582		A (The compound is very good in the subtype identification (namely, the resolution R is 0.5 or more))			38.4	9.02							subtype more strongly stained [1]: the M1 macrophages show higher fluorescence intensity in the APC channel than the M2 macrophages
